# Reference: patent US20140301961A1, “COMPOUNDS WITH ANTI-AGING ACTIVITIES” (priority 2011, published 2014)
# Tests used:
# MMP3 = test: PMA inflammation induced MMP3 production in human dermal fibroblasts; assay type: cell-based; details: PMA 10 nM, 24 h (FIG. 4)
# Experimental: MMP-inhibitory activity for compounds of the invention was also assessed on human dermal fibroblasts. Dermal fibroblasts were cultured in Dulbecco's Modified Eagle Medium (DMEM) (Invitrogen) with 10% EBS (ex. Invitrogen) and 1% Pencillin/Streptavidin (ex. Invitrogen). To induce inflammation in the cells, PMA (phorbol myristate acetate) (ex. Sigma) was used at a concentration of 10 nM. […] The cells were stimulated for 24 h and the culture supernatant was collected and stored at −20° C. until further analysis. Fluorokine MultiAnalyte Profiling (xMAP) using the BioPlex (ex. Biorad) dual laser flow-based sorting and detection analyzers manufactured by Luminex corporation (Luminex, Austin, Tex.) was employed to measure levels of MMP in conditioned media samples of stimulated dermal fibroblasts. The technology incorporated polystyrene microspheres dyed internally with differing ratios of two spectrally distinct fluorophores to create a family of different spectrally addressed bead sets. The bead utilized in this study was conjugated with a biotinylated capture antibody specific for a unique MMPs, The assay was performed without antecedent serum depletion. Results were compared with medium from cells treated with vehicle only (DMSO). The assays utilized a 96-well microplate format and were processed according to the manufacturer's protocol, including generation of a standard curve for each target prepared in background assay diluents. Values that fell within the linear range of the calibration assay were accepted. Samples were analyzed using the Bio-Plex suspension array system and Bio-Plex Manager software 4.0 (Bio-Rad Laboratories, Hercules, Calif.). Quantities were determined by comparison to standard curves obtained for the different MMP.
# [1] = tested on: Plasminogen activator (PLAT); test: Plasminogen activator (PLAT) activation
# [2] = tested on: MMP-1, MMP-2, MMP-3, MMP-8, MMP-9; test: UV-induced MMP production in human skin explants; assay type: cell-based; details: 1% in propylene glycol (FIG. 2)
# Experimental: MMP inhibition activity for compound of the invention was tested on human skin explants. Skin explants were sourced from 2 healthy caucasian female breast skin donor […]. A cream containing all-trans retinoic acid (tretinoin) (0.05%) was added topically using positive displacement pipette (5 ul/cm^2) to each explants. A similar cream base without tretinoin was used as placebo control. […] Solutions were kept under nitrogen and used immediately after preparation. Propylene glycol was used as vehicle control for the compounds of the invention in this study. Fluorokine MultiAnalyte Profiling (xMAP) using the BioPlex (ex. Biorad) dual laser flow-based sorting and detection analyzers manufactured by Luminex corporation (Luminex, Austin, Tex.) was employed to measure levels of MMP in conditioned media samples of stimulated dermal fibroblasts. The technology incorporated polystyrene microspheres dyed internally with differing ratios of two spectrally distinct fluorophores to create a family of different spectrally addressed bead sets. […] Samples were analyzed using the Bio-Plex suspension array system and Bio-Plex Manager software 4.0 (Bio-Rad Laboratories, Hercules, Calif.). Quantities were determined by comparison to standard curves obtained for the different MMP.
# [3] = tested on: heparin-binding EGF-like growth factor (HBEGF); test: Affymetrix gene array on skin explants, HBEGF; assay type: cell-based, human; details: topical, 24 hours, cut-off |log 2−ratio|>1
# Description: (§1) Subcutaneous fat from full thickness skin, obtained from surgical waste material from breast reduction procedures, was removed with a scalpel. Three healthy Caucasian female donors were used for this study. The female donors differed from those of the skin-treatment study outlined previously 8 mm punch biopsies were taken from the skin (and these biopsies are now referred to as skin explants). Skin explants were put on Milipore cell culture inserts (12 mm diameter). Inserts containing skin explants were put in 6-well plates (one insert/well) and 1 mL of supplemented keratinocyte medium (ex Cascade Biologics) was added to each well. A tretinoin-containing cream (Aberela® ex. Janssen): 0.05% tretinoin in the cream, was applied topically to each explant (5 μL/cm^2) using a positive displacement pipette. A placebo cream without tretinoin was used as a control. The skin explants were incubated with tretinoin for 24 hours at 37° C. in 5% CO2-humidified air.
# (§2) RNA concentration was measured with ND-1000 spectrophotometer (ex. NanoDrop Technologies) and RNA quality was evaluated using the Agilent 2100 bioanalyzer system (ex. Agilent Technologies). 250 nanograms of total RNA from each skin or skin explant sample was used to prepare biotinylated fragmented cRNA according to the GeneChip® 3′IVT Express Kit Manual (PN702646 Rev 1, ex. Affymetrix Inc.). Affymetrix GeneChip® expression arrays (Human Genome U133 Plus 2.0) were hybridized for 16 hours in a 45° C. incubator, rotated at 60 rpm. According to the GeneChip Expression Wash, Stain and Scan Manual (PN 702731 Rev 2, ex. Affymetrix Inc.) the arrays were washed and stained using the Fluidics Station 450 and scanned using the GeneChip® Scanner 3000 7G.
# Analysis of the gene expression data was carried out in the statistical computing language R (http://www.r-project.org) using packages available from the Bioconductor project (www.bioconductor.org). The raw data was normalized using the robust multi-array average (RMA) method. […]
# [4] = In vitro skin permeation, static Franz diffusion cells; assay type: in vitro ADME; details: 0.5% w/w in a basic formulation, topical, 24 hours, pig skin (FIG. 1)
# Description: The in vitro skin permeation experiments were developed and validated according to the Organization for Economic Co-Operation and Development adopted guideline 428 (OECD guideline for the testing of chemicals. Skin absorption: in vitro method. Guideline 428 (Paris, April 2004, updated January 2011)).
# For this investigation, static Franz glass diffusion cells (Permegear, USA) were used. These cells consist of donor and receptor chambers in between which a piece of porcine skin was positioned (thickness 800 μm). About 20 mg/cm^2 of each formulation were applied on the skin surface through the donor compartment in triplicate for each formulation. The pig skin samples were equilibrated for 30 minutes, and air bubbles were removed. The cells were kept at constant temperature with a circulating water flow at 37° C. and the receptor compartment content (ethanol/water 50:50) was continuously agitated by magnetic stirrers.
# After an exposure time of 24 hours, the diffusion cells were dismounted and each active was analysed in each compartment. • the non absorbable dose: the skin surface was washed with 10.0 ml of methanol and one tape-strip was made in order to remove the residual donor samples. • the potentially absorbable dose: the tape stripping procedure was used in order to separate the stratum corneum from the skin sample. […]
# [5] = tested on: connective tissue growth factor (CTGF); test: Affymetrix gene array on skin explants, CTGF; assay type: cell-based, human; details: topical, 24 hours, cut-off |log 2−ratio|>1
# Description: as §1, §2
# Analysis of the gene expression data was carried out in the statistical computing language R (http://www.r-project.org) using packages available from the Bioconductor project (www.bioconductor.org). The raw data was normalized using the robust multi-array average (RMA) method. In order to search for differentially expressed genes between the X samples and the Y samples group an empirical Bayes moderated t-test was then applied using the ‘limma’ package.
# Skin explants were obtained as detailed in Example 3.1. Compounds naringenin and N-acetyl aspartic acid were topically applied on skin explants for 24 hours and investigated with Affymetrix gene array.
# [6] = tested on: human reconstructed epidermis (SkinEthic model); test: In vitro skin irritation, OECD guideline 439; assay type: cell-based; details: pure compound, cytotoxicity assay on reconstructed epidermis
# Experimental: The studies, aimed at evaluating the capability of the test compound to induce skin irritation effects by a cytotoxicity assay on in vitro human reconstructed epidermis (SkinEthic), were carried out according to the ECVAM protocol of Apr. 27, 2007, the B46 method of the official journal of the European union, dated Aug. 14, 2009 and the OECD guideline 439.
# keratin 6 = test: Keratin-6 production in normal human keratinocytes; assay type: cell-based; details: normal human keratinocytes (FIG. 11)
SMILES,inhibition of PMA inflammation induced MMP3 production (MMP3),Plasminogen activator (PLAT) activation [1],"inhibition of UV-induced MMP-1, MMP-2, MMP-3, MMP-8, MMP-9 production [2]",HBEGF gene expression [3],penetration into the skin [4],CTGF gene expression [5],skin irritation [6],keratin-6 production (keratin 6)
"C=C1C[C@]23C[C@@]1(O)CC[C@H]2[C@@]12C=C[C@H](O)[C@@](C)(C(=O)O1)[C@@H]2[C@@H]3C(=O)O [Gibberellic acid, (3S,3aS,4S,4aS,7S,9aR,9bR,12S)-7,12-dihydroxy-3-methyl-6-methylene-2-oxoperhydro-4a,7-methano-9b,3-propenoazuleno[1,2-b]furan-4-carboxylic acid]",inhibition,activated,inhibition,,,,,
"CC(=O)N[C@@H](CC(=O)O)C(=O)O [N-Acetyl aspartic acid, (2S)-2-Acetamidobutanedioic acid]",inhibition,activated,inhibition,No,penetration of each active into the skin,1.03 log 2−ratio,non-irritating to skin,
"O=C1C[C@@H](c2ccc(O)cc2)Oc2cc(O)cc(O)c21 [Naringenin, (S)-2,3-Dihydro-5,7-dihydroxy-2-(4-hydroxyphenyl)-4H-1-benzopyran-4-one]",inhibition,,,1.19 log 2−ratio,penetration of each active into the skin,1.05 log 2−ratio,non-irritating to skin,stimulated keratin-6 production
